Measurements reported in EP0169405A2, “Use of substituted pyrimido (5,4-d) pyrimidines” (BOEHRINGER INGELHEIM KG, priority 1984, dated 1986).
Where two headings read alike, the source gives them in different places.

What was measured:
[1] = system: Störung des Kurzzeitgedächtnisses; assay: Reversal of scopolamine-induced disturbance of short-term memory; type: in vivo; details: po; scopolamine-induced memory disturbance is reversed; read-out: niedrigste wirksame Dosis (wirksam ab)
Excerpt: In der Formel I bedeutet • ^R1 einen Cl-C3-Alkoxy-(C2-C3-alkyl)rest, • ^R2 einen C2-C6-Hydroxyalkylrest oder einen C3-Dihydroxy- alkylrest, • ^R3 einen C1-C3-Alkoxy-(C2-C3-alkyl) rest oder einen C2-C3-Hydroxyalkylrest, • R4 einen Dialkylaminorest, wobei jeder Alkylrest 1 bis 6 C-Atome enthalten kann, die Diallyl- oder Di-(methoxyethyl)-aminogruppe oder einen gegebenenfalls durch eine Methylgruppe substituierten Pyrrolidino-, Piperidino-, Hexamethylenamino-, 1', 2', 5', 6'-Tetrahydropyridino-, Morpholino-, Thiomorpholino- oder 1-Oxidothiomorpholinoring. Die Verbindungen können als freie Basen oder als physiologisch verträgliche Säureadditionssalze mit anorganischen oder organischen Säuren vorliegen. Es wurde nun in tierexperimentellen Untersuchungen gefunden, daß die Verbindungen überraschenderweise besonders zur Beeinflussung eingeschränkter zerebraler Leistungsfähigkeit geeignet sind. Die folgenden Ergebnisse stützen diese Aussage: • 1. Durch gabe des muskarinen cholinergen Antagonisten Scopolamin wird eine Störung des Kurzzeitgedächtnisses bzw. des Übergangs von Inhalten des Kurzzeit- in das sogenannte Langzeitgedächnis erzeugt. Diese Einschränkung wird durch die neuen Verbindungen aufgehoben. […]

[2] = Acute toxicity in the mouse (LD50); details: in vivo

| Structure (SMILES) | minimal effective dose [1] [mg/kg] | LD50 ([2]; iv, read-out: i.v. LD50) [mg/kg] | LD50 ([2]; po, read-out: p.o. LD50) [mg/kg] |
| --- | --- | --- | --- |
| COc1ccc(C(=O)N2CCCC2=O)cc1 [Aniracetam] | 50 |  |  |
| NC(=O)CN1CCCC1=O [Piracetam] | 150 |  |  |
| CCN(CC)c1nc(N(CCO)CCOC)nc2c(N(CC)CC)nc(N(CCO)CCOC)nc12 [Verbindung (B)] |  | 133 | > 3000 |
